Experiments:
[1] = in vitro metabolic stability test, human liver homogenate (S9 fraction); assay type: in vitro ADME; settings: 100 nM, sampling 5, 10, 30, 60 minutes, LC-MS/MS, FIG. 1 (1)
Protocol: (§1) Using human and rat liver homogenates (S9 fractions), the in vitro metabolic stability test of tolvaptan (racemic compound), R-tolvaptan, and S-tolvaptan was performed. The concentration of each evaluated compound was set to 100 nM, and the concentration sampling of each compound in a reaction mixture was conducted over time, i.e., 5, 10, 30, and 60 minutes after addition, and measured by LC-MS/MS (FIGS. 1 (1) and (2)).

[2] = dissolution test of tolvaptan powders; assay type: physicochemical; settings: Test Example 3; crystal powders; 0.1 g in 500 mL polysorbate 80 / phosphate solution pH 7.4; sampling up to 48 hours; FIG. 5
Protocol: The dissolution test of each of the R- and S-tolvaptan SD powders of Examples 1 and 2, tolvaptan (racemic compound) SD powders of Comparative Examples 1 to 6, and tolvaptan (racemic compound) crystal powder of Comparative Example 7 was performed (FIGS. 2 to 4). In the dissolution test method, the R- and S-tolvaptan SD powders, tolvaptan (racemic compound) SD powders, and tolvaptan (racemic compound) crystal powder were weighed out in individual amounts of 0.1 g, and added to a solution (500 mL) for dissolution test shown in Table 2. None of the tolvaptans in an amount weighed above were dissolved in the solvent for dissolution test, and were fully suspended. Sequential sampling was performed 0.083, 0.167, 0.5, 1, 2, 4, 6, 8, 12, 24, 48, and 144 hours after addition.
The dissolution test of each of the R- and S-tolvaptan crystal powders was performed (FIG. 5). As a control, the result of Comparative Example 7 in Test Example 2 above was plotted. In the dissolution test method, an R-tolvaptan crystal powder (mean particle size: 34.0 μm) or an S-tolvaptan crystal powder (mean particle size: 35.8 μm) was weighed out in an amount of 0.1 g, and added to the solution for the dissolution test (500 mL) shown in Table 2 above. None of the tolvaptans in an amount weighed above were dissolved in the solution for dissolution test, and were fully suspended. […]

[3] = in vitro metabolic stability test, rat liver homogenate (S9 fraction); assay type: in vitro ADME; settings: 100 nM, sampling 5, 10, 30, 60 minutes, LC-MS/MS, FIG. 1 (2)
Protocol: as §1

Compound	in vitro metabolic stability (disappearance over time) [1]	dissolution amount [2]	in vitro metabolic stability (disappearance over time) [3]
Cc1ccccc1C(=O)Nc1ccc(C(=O)N2CCC[C@H](O)c3cc(Cl)ccc32)c(C)c1 [S-tolvaptan, S-(−)-7-chloro-5-hydroxy-1-[2-methyl-4-(2-methylbenzoylamino)benzoyl]-2,3,4,5-tetrahydro-1H-benzazepine]	disappeared slowly compared to tolvaptan (racemic compound) or R-tolvaptan, and had high metabolic stability	slightly higher than that of the tolvaptan (racemic compound) crystal of Comparative Example 7, and remained fairly constant	–
Cc1ccccc1C(=O)Nc1ccc(C(=O)N2CCC[C@@H](O)c3cc(Cl)ccc32)c(C)c1 [R-tolvaptan, R-(+)-7-chloro-5-hydroxy-1-[2-methyl-4-(2-methylbenzoylamino)benzoyl]-2,3,4,5-tetrahydro-1H-benzazepine]	–	slightly higher than that of the tolvaptan (racemic compound) crystal of Comparative Example 7, and remained fairly constant	disappeared slowly compared to tolvaptan (racemic compound) or S-tolvaptan, and had high metabolic stability
